Laboratory results published in US5376676A (Allergan, Inc., priority 1991, dated 1994).

Tests used:
[1] = target: bee venom phospholipase A2 (Apis mellifera, UniProt P00630); assay: biochemical; settings: read-out: IC50 PLA2
[2] = target: phosphoinositide-specific phospholipase C; assay: Inhibition of phosphoinositide-specific phospholipase C assay (PLC); type: biochemical
Text: Inhibition of Phosphoinositide-specific Phospholipase C
The effect of compounds of this invention on phosphoinositide-specific phospholipase-C may be determined by procedures described by Bennett et al, Molecular Pharmacology 32:587-593 (1987).

[3] = system: Ca2+ channel mobilization (TRH induced); assay: Calcium channel (mobilization) inhibition assay, TRH induced; type: cell-based; settings: for IC50: TRH induced calcium mobilization
Text: (§1) Calcium Channel (Mobilization) Inhibition Assay
(§2) Polymorphonuclear leukocytes (PMNa), gastric glands, GH3 cells, A431 cells, spleen cells, human keratinocytes corneal cells, etc. were loaded with the Ca^2+ sensitive fluorescent dye, Fura-2. The appropriate cell type was chosen and the potency and efficacy of the anti-inflammatory furanones on calcium mobilization, calcium channel inhibition quantitated. The methods used for A431 cells listed below are representative of those used for other cells.
(§3) A431 cells were detached using a 5-10 min trypsin-EDTA treatment whereas GH3 cells were treated 2 to 5 min with a 1% pancreatin solution. Cells were immediately washed twice in a 20 mM HEPES buffer (pH 7.4) containing 120 mM NaCl, 6 mM KCl, 1 mM MgSO4, 1 mg/ml glucose and 1 mg/ml pyruvate and 1.4 mM calcium (medium A). Approximately 5×10^6 cells were suspended in medium A and incubated with 4 μM fura-2-AM for 15 min at 37° C.
(§4) Fluorescence was continuously recorded with a Perkin-Elmer LS-5 spectrofluorometer. The excitation wavelength was set at 340 nm and emission wavelength set at 500 nm. The cell suspension was continually stirred, maintained at 37° C. and equilibrated for approximately 5 min before addition of various agents. [Ca^2+ ]i was calculated using the following formula: [formula]
(§5) All fluorescence values were measured relative to a EGTA-quenched signal determined as follows: F was the relative fluorescence measurement of the sample. Fmax was determined by lysing the cells with digitonin (100 μg/ml) in DMSO. After Fmax was determined the pH was adjusted to 8, with NaOH and Ca^2+ chelated with 3 mM EGTA to totally quench the fura-2 signal and obtain Fmin.
(§6) When quin-2 was used, cells were Incubated with 10 μM quin-2 at 37° C. for 1 hr, washed and then used.

[4] = system: Ca2+ channel mobilization (KCl induced); assay: Calcium channel (mobilization) inhibition assay, KCl induced; type: cell-based
Text: as §1, §2, §3
as §4, with “After washing the fura-2 loaded cells, the uptake of dye was checked using fluorescence micioscopy and found to be evenly distributed in the cytosol of all cells. Fluorescence” for “Fluorescence”
as §5, §6

Sequence of bee venom phospholipase A2 (P00630 34-167 limits assumed): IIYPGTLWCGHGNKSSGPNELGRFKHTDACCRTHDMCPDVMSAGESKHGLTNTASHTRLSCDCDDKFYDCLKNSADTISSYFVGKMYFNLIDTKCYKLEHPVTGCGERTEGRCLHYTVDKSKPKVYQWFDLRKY

| SMILES | IC50 [1] [nM] | IC50 [2] [nM] | IC50 [3] [nM] | Selectivity between calcium channel inhibition and phospholipase inhibition ([3]; conclusion from Table 1 (Ca2+ TRH/KCl vs PLA2, PLC)) | IC50 [4] [nM] |
| --- | --- | --- | --- | --- | --- |
| CCCCCCCCCCCCCC1=CC(=O)OC1 [Compound 1, 4-tridecyl-2(5H)-furanone] | > 3300 | > 100000 | 2600 | selective calcium channel inhibitor | 1500 |
| CCCCCCCCCCCCCC1=CC(=O)OC1O (stereo not drawn) [Compound 2, 4-tridecyl-5-hydroxy-2(5H)-furanone] | 90 | > 100000 | 3000 | – | 3000 |
| CC1=C(CC/C(C)=C/CCC2=CCC(C3=CC(=O)OC3O)OC2O)C(C)(C)CCC1 (stereo not drawn) [manoalide, reference compound] | – | 3000 | 600 | – | 800 |
